Measurements as given in patent US20100216772A1, “Novel Phenantridine Analogues and Uses Thereof” (priority 2004, published 2010).

Tests used:
[1] = tested on: HaCaT keratinocytes; assay: Influence of compounds on keratinocyte proliferation (Cell Titer Viability Assay); type: cell-based; conditions: Homo sapiens, 25 μM test compound, 48 hrs, compared to control experiments
Experimental: 5×10^3 HaCaT keratinocytes were seeded into 60 wells of 96 well plates in 200 μl KBM/10% FCS and incubated for 24 hrs at 37° C. The test compounds were dissolved at 100 mM in DMSO. The test items were then diluted to a concentration of 25 μM in KBM/FCS with a final concentration of 1% DMSO. The test compounds, as well as the negative control for unstimulated cells (KBM/1% DMSO) and stimulated cells (KBM/FCS/1% DMSO), were added to the HaCaTs in triplicates and incubated for 48 hrs. At the end of the incubation period, the media was removed and cell numbers were determined with Cell Titer Viability Assay from Promega (#G7571/G7572) according to the manufacturer's instructions.

[2] = tested on: Peripheral blood mononuclear cells (PBMCs); assay: Influence of compounds on T cell proliferation ([3H]-Thymidin, anti-CD3-stimulated PBMCs); type: cell-based; conditions: PBMC, three different human donors
Excerpt: Peripheral blood mononuclear cells (PBMCs) were isolated from peripheral blood by Ficoll gradient centrifugation. […] Subsequently, the cells were washed three times with PBS and were resuspended in 96-well plates in a concentration of 2×10^5 cells/well. […] As positive and negative controls, PBMCs, stimulated with soluble anti-CD3-antibody, and non-stimulated PBMCs plus 0,1% DMSO were used. The addition of 0,1% DMSO had no effect on the proliferation rate. […] The cells were harvested using a Mikro 96 Harvester (Skatron Instruments, Lier, Norwegen). The cpm-values indicative for proliferation were determined using a Packard Matrix 9600 Counter (Canberra Packard, Schwadorf, Österreich). The experiments were made with three different human donors.
In order to determine the EC50 of test compounds, the value of anti-CD3-stimulated cells plus 0,1% DMSO was set as 100%. All other values were divided by the 100% value in order to obtain a relative percentage of inhibition. The obtained percentage values were used to determine the EC50 values using Sigma Plot.

Row | Structure (SMILES) | inhibition at 25 µM [1] [%] | EC50 [2] [µM]
1 | CC(=O)N1c2ccccc2-c2ccccc2C1c1c[nH]c2ccccc12 (centres unmarked) [Example 3, 1-[6-(1H-Indol-3-yl)-6H-phenanthridin-5-yl]-ethanone] | > 50 | < 25
2 | O=C(c1ccccc1)N1c2ccccc2-c2ccccc2C1c1c[nH]c2ccccc12 (centres unmarked) [Example 4, [6-(1H-Indol-3-yl)-6H-phenanthridin-5-yl]-phenylmethanone] | > 50 | –
3 | CN(C)c1ccc(C(=O)N2c3ccccc3-c3ccccc3C2c2c[nH]c3ccccc23)cc1 (centres unmarked) [Example 6, (4-Dimethylamino-phenyl)-[6-(1H-indol-3-yl)-6H-phenanthridin-5-yl]-methanone] | > 50 | –
4 | O=C(c1ccc(C(F)(F)F)cc1)N1c2ccccc2-c2ccccc2C1c1c[nH]c2ccccc12 (centres unmarked) [Example 7, [6-(1H-Indol-3-yl)-6H-phenanthridin-5-yl]-(4-trifluoromethyl-phenyl)-methanone] | > 50 | –
5 | O=C(c1cccc(F)c1)N1c2ccccc2-c2ccccc2C1c1c[nH]c2ccccc12 (centres unmarked) [Example 12, (3-Fluoro-phenyl)-[6-(1H-indol-3-yl)-6H-phenanthridin-5-yl]-methanone] | > 50 | < 25
6 | O=C(c1cccc(C(F)(F)F)c1)N1c2ccccc2-c2ccccc2C1c1c[nH]c2ccccc12 (centres unmarked) [Example 14, [6-(1H-Indol-3-yl)-6H-phenanthridin-5-yl]-(3-trifluoromethyl-phenyl)-methanone] | > 50 | –
7 | O=C(c1cc(C(F)(F)F)cc(C(F)(F)F)c1)N1c2ccccc2-c2ccccc2C1c1c[nH]c2ccccc12 (centres unmarked) [Example 17, (3,5-Bis-trifluoromethyl-phenyl)-[6-(1H-indol-3-yl)-6H-phenanthridin-5-yl]-methanone] | > 50 | –
8 | O=C(c1ccc(Cl)nc1)N1c2ccccc2-c2ccccc2C1c1c[nH]c2ccccc12 (centres unmarked) [Example 20, (6-Chloro-pyridin-3-yl)-[6-(1H-indol-3-yl)-6H-phenanthridin-5-yl]-methanone] | > 50 | –
9 | O=C(c1cccnc1Cl)N1c2ccccc2-c2ccccc2C1c1c[nH]c2ccccc12 (centres unmarked) [Example 21, (2-Chloro-pyridin-3-yl)-[6-(1H-indol-3-yl)-6H-phenanthridin-5-yl]-methanone] | > 50 | < 25
10 | O=C(c1ccco1)N1c2ccccc2-c2ccccc2C1c1c[nH]c2ccccc12 (centres unmarked) [Example 23, Furan-2-yl-[6-(1H-indol-3-yl)-6H-phenanthridin-5-yl]-methanone] | > 50 | < 25
11 | CC(C)C(=O)N1c2ccccc2-c2ccccc2C1c1c[nH]c2ccccc12 (centres unmarked) [Example 26, 1-[6-(1H-Indol-3-yl)-6H-phenanthridin-5-yl]-2-methyl-propan-1-one] | > 50 | < 25
12 | CCCC(C)C(=O)N1c2ccccc2-c2ccccc2C1c1c[nH]c2ccccc12 (centres unmarked) [Example 28, 1-[6-(1H-Indol-3-yl)-6H-phenanthridin-5-yl]-2-methyl-pentan-1-one] | > 50 | < 25
13 | O=C(C1CCC1)N1c2ccccc2-c2ccccc2C1c1c[nH]c2ccccc12 (centres unmarked) [Example 30, Cyclobutyl-[6-(1H-indol-3-yl)-6H-phenanthridin-5-yl]-methanone] | > 50 | –
14 | O=C(CCC1CCCCC1)N1c2ccccc2-c2ccccc2C1c1c[nH]c2ccccc12 (centres unmarked) [Example 34, 3-Cyclohexyl-1-[6-(1H-indol-3-yl)-6H-phenanthridin-5-yl]-propan-1-one] | > 50 | –
15 | O=C(CCc1ccccc1)N1c2ccccc2-c2ccccc2C1c1c[nH]c2ccccc12 (centres unmarked) [Example 35, 1-[6-(1H-Indol-3-yl)-6H-phenanthridin-5-yl]-3-phenyl-propan-1-one] | > 50 | –
16 | COC(=O)N1c2ccccc2-c2ccccc2C1c1c[nH]c2ccccc12 (centres unmarked) [Example 36, 6-(1H-Indol-3-yl)-6H-phenanthridine-5-carboxylic acid methyl ester] | > 50 | –
17 | Cc1ccc(S(=O)(=O)N2c3ccccc3-c3ccccc3C2c2ccc3c(c2)OCO3)cc1 (centres unmarked) [Example 76, 6-Benzo[1,3]dioxol-5-yl-5-(toluene-4-sulfonyl)-5,6-dihydro-phenanthridine] | – | < 25
18 | Cc1ccc(C(=O)n2c(=O)c3ccccc3c3ccccc32)cc1 [Example 77, 5-(4-Methyl-benzoyl)-5H-phenanthridin-6-one] | – | < 25
19 | Cc1ccc(S(=O)(=O)N2CC(=O)c3ccccc3-c3ccccc32)cc1 [Example 78, 5-(Toluene-4-sulfonyl)-5,6-dihydro-dibenzo[b,d]azepin-7-one] | > 50 | < 25
20 | O=C1CN(S(=O)(=O)c2ccccc2)c2ccccc2-c2ccccc21 [Example 79, 5-Benzenesulfonyl-5,6-dihydro-dibenzo[b,d]azepin-7-one] | – | < 25
21 | CC(=O)Nc1ccc(S(=O)(=O)N2CC(=O)c3ccccc3-c3ccccc32)cc1 [Example 81, N-[4-(7-Oxo-6,7-dihydro-dibenzo[b,d]azepine-5-sulfonyl)-phenyl]-acetamide] | – | < 25
22 | O=C1CN(S(=O)(=O)c2ccc(Br)cc2)c2ccccc2-c2ccccc21 [Example 82, 5-(4-Bromo-benzenesulfonyl)-5,6-dihydro-dibenzo[b,d]azepin-7-one] | – | < 25
23 | O=C1CN(S(=O)(=O)c2ccc([N+](=O)[O-])cc2)c2ccccc2-c2ccccc21 [Example 83, 5-(4-Nitro-benzenesulfonyl)-5,6-dihydro-dibenzo[b,d]azepin-7-one] | – | < 25
24 | O=C1CN(S(=O)(=O)c2cc(C(F)(F)F)cc(C(F)(F)F)c2)c2ccccc2-c2ccccc21 [Example 84, 5-(3,5-Bis-trifluoromethyl-benzenesulfonyl)-5,6-dihydro-dibenzo[b,d]azepin-7-one] | – | < 25
25 | O=C1CN(S(=O)(=O)c2cccs2)c2ccccc2-c2ccccc21 [Example 86, 5-(Thiophene-2-sulfonyl)-5,6-dihydro-dibenzo[b,d]azepin-7-one] | – | < 25
